From patent publication US12599584B2, “Indoline derivatives, compositions comprising them and uses thereof” (Yissum Research Development Company of The Hebrew …, priority 2016, dated 2026) come the findings set out here.

Structures can show the parent of a compound that is named as a salt.

Assay [1] concerns TNF-α release from LPS-activated RAW cells. Description: Release of TNF-α from LPS-activated RAW 264.7 macrophages (ELISA). The format is cell-based, mouse. As to conditions: for Lowest concentration that inhibited TNF-α release by 25%: LPS-activated RAW cells; for Greater concentration needed to cause the same effect (TNF-α release): substituent in position 5, compared with AN1284. Here is the method:
(§1) Anti-inflammatory activity was measured in RAW 264.7 macrophage cells. The cells were seeded at density of 5×10^4 per well in 48-well culture plates and grown overnight in DMEM as described above. The compounds were added to give final concentrations ranging from 1×10^−12-1×10^−6 M of the respective salts per well. The cells were incubated for 2 h at 37° C. prior to stimulation with lipopolysaccharide (LPS, 2.5 μg/mL) from Escherichia coli (Sigma-Aldrich). Supernatants were harvested after 8 h for detection of TNF-α and after 24 h for nitric oxide (NO). NO production was detected by a colourimetric method using Griess reagent (0.2% naphthylenediamine dihydrochloride, and 2% sulfanilamide in 5% phosphoric acid), which measures the concentration of nitrite, a stable metabolite produced from NO. TNF-α protein was detected by means of the sandwich ELISA method using an ELISA kit (Biolegend, San Diego, CA, USA) according to the manufacturer's instructions.

In assay [2] the test system is NO release from LPS-activated RAW cells. Description: Release of NO from LPS-activated RAW 264.7 macrophages (Griess). Format: cell-based, mouse. To be noted: for Lowest concentration that inhibited NO release by 25%: LPS-activated RAW cells; for Greater concentration needed to cause the same effect (NO release): substituent in position 5, compared with AN1284. Here is the method: as §1
(In general: Griess reagent forms a coloured azo dye with nitrite.)

The test system of assay [3] is LPS-injected mice. Description: Pro-inflammatory cytokine proteins in tissues of mice injected with LPS. The format is in vivo, mouse. As to conditions: sc, 2-3 doses, 15 min before LPS 10 mg/kg ip; 4 h after LPS. As to the method:
Male Balb/c OlaHsd mice (aged 7-8 weeks) were injected subcutaneously (sc) with saline, or with AN1279, AN1283, AN1284, AN1287 and AN1298 at doses that contain approximately the equivalent amount of the base. LPS (10 mg/kg) was given by intraperitoneal injection 15 min later. The mice were sacrificed 4 h later, which was previously shown to be the optimal time for elevation of cytokines in the spleen and brain. The spleen, brain and liver were rapidly removed and frozen in liquid nitrogen and stored at −80° C. until use. A piece of the cortex was taken for gene analysis of cytokines. Blood was collected into heparinized tubes and plasma separated by centrifugation. For measurement of cytokine protein, tissues were weighed and diluted in PBS containing 0.8% NaCl, 0.144% NaHPO4, 0.024% KH2PO4 and protease inhibitor cocktail (Sigma) and homogenised in an Ultra-TURRAX® homogeniser at a speed of 24,000 rpm and centrifuged at 14000 g for 15 min at 4° C. Cytokines were detected by means of Elisa kits (Biolegend) and protein concentration was determined by a bicinchoninic acid protein assay kit (Thermo Scientific, IL, USA).

Assay [4] deals with C57B1/6 mice with STZ-induced diabetes. In words: Diabetic nephropathy induced by streptozotocin (STZ). The format is in vivo, mouse. The text has this: The renal proximal tubule is uniquely susceptible to a variety of metabolic and hemodynamic factors associated with diabetes, predominantly to hyperglycaemia. Glucose entry into renal proximal tubular cells is insulin-independent, making these cells particularly sensitive to the deleterious effects of chronic hyperglycaemia in subjects with diabetes. To induce diabetic nephropathy, male 20, 8-week-old C57B1/6 mice were given five consecutive intraperitoneal injections of streptozotocin (STZ) (50 mg/kg per day). A control group of 10 mice was given 0.1 mol/L citrate buffer (pH 4.5). Ten days following the last injection of STZ, half the mice were treated twice daily with sc injections of AN1284 2HCl (2 μmoles/kg), or vehicle (saline) for fifteen weeks.

Assay [5] has as its system IL-6 in human macrophages. In words: IL-6 in human macrophages after elevation by LPS (ELISA). Format: cell-based. To be noted: 24 h after LPS; 1 × 10^−9 M. Here is the method: (§2) Blood (20 ml was collected from healthy human subjects on the day of the experiment in anti-coagulant tubes and diluted in PBS 1:1. Ficol (12 mL) was added into the bottom of the tube, centrifuged slowly for 30 min at 1400 g and peripheral blood mononuclear cells (PBMCs) were separated. Monocytes were isolated by addition of 15 ml of MACS buffer. After centrifugation at 1400 g for 10 min at 4° C., the supernatant fluid was removed, monocytes were isolated by means of a MACS-Monocyte isolation kit (cat: 130-091-153) and incubated at 4-8° C. for 10 min Monocytes (500,000/well) were seeded in 12 multi well plate and cultured for 7 days in RPMI+L-Glutamin+FBS (10%) and PenStrep and h-MCSF (20 ng/mL) to convert them into macrophages. Compounds (AN1284, AN1297, AN1298, 1×10^−10 or 1×10^−9 M) were added 2 h before LPS (100 μg/mL Sigma Ltd. phenol extracted from Escherichia coli 055: B5) and incubated at 37° C., 5% CO2. TNF-α, IL-1β and IL-6 protein were detected by means of the sandwich ELISA method using an ELISA kit for human cytokines (Biolegend, San Diego, CA, USA) according to the manufacturer's instructions.
On the technique in general: ELISA stands for enzyme-linked immunosorbent assay.

Assay [6] deals with RERT/TSC1^f/f mice. In words: Tuberous sclerosis model: tamoxifen-induced TSC1 deletion. The format is in vivo, mouse. As to the method: RERT/TSC1^f/f mice develop kidney pathology that resembles human tuberous sclerosis (TSC). Mice bearing a floxed allele of TSC1 were purchased from Jackson laboratories and crossed to homozygosity to the RERT strain, provided by Dr. Mariano Barbacid, Spanish National Cancer Research Centre. The RERT strain contains an IRES-Cre-ERT2 knock in into the large subunit of RNA polymerase II, allowing an inducible deletion in all cell types by administration of tamoxifen. […] The mice were injected sc with tamoxifen to induce TSC1 deletion and its effect assessed on body weight and immunological parameters associated with inflammation. AN1284 (1 μmole/kg of the 2HCl salt) was injected sc, twice daily in a group of 5 female mice 5 weeks after tamoxifen challenge. An untreated group of 5 tamoxifen challenged mice served as controls. The mice were weighed once weekly and observed for development of lethargy and eye closure.

The subject of assay [7] is TNF-α in human macrophages. In words: TNF-α in human macrophages after elevation by LPS (ELISA). The format is cell-based. As to the method: as §2, with “Compounds (AN1284, AN1297, AN1298, 1×10^−10 or 1×10^−9 M) were added 2 h before LPS (100 μg/mL Sigma Ltd. phenol extracted from Escherichia coli 055: B5) and incubated at 37° C., 5% CO2.” left out
The mark [8] stands for this setting: whole kidney homogenates of diabetic mice.
The mark [9] stands for this setting: 1 μmole/kg 2HCl salt sc twice daily.
Where [10] appears, read: N-isopropylpropylamine versus propylamine side chain.

For the compound `COC(=O)CCC1CNc2ccccc21.Cl` (stereo not drawn) [AN647], the “Lowest concentration that inhibited TNF-α release by 25%” value in assay [1] is 100 pM. For the same compound, the “Lowest concentration that inhibited NO release by 25%” value in assay [2] was determined as 100 pM.
As for `Cc1ccc(S(=O)(=O)O)cc1.NCCCC1CNc2ccccc21` (stereo not drawn) [AN1282, 3-(Indolin-3-yl)propan-1-amine di-p-Toluenesulfonate], the “Lowest concentration that inhibited TNF-α release by 25%” value in assay [1] turned out to be 100 pM. Further, the “Lowest concentration that inhibited NO release by 25%” value in assay [2] came out at 100 pM.
`COC(=O)CCN1CCc2ccccc21.Cl` [AN1283, Methyl 3-(Indolin-1-yl)propanoate Hydrochloride]: in assay [3], the “IL-6 protein in the brain” value is “reduction” and the “IL-6 protein in the liver” value is recorded as “reduction”.
As for `CC(C)NCCCN1CCc2ccccc21.Cc1ccc(S(=O)(=O)O)cc1` [AN1284, 3-(Indolin-1-yl)-N-isopropylpropan-1-amine di-p-Toluenesulfonate], in assay [4] (2 μmoles/kg sc twice daily, fifteen weeks), the Degree of hyperglycaemia result is reported as “did not affect”. Further, in assay [4] (0.5 mg/kg, sc), the “Renal mRNA expression level of fibronectin 1” value is reported as “significantly normalised”. Moreover, the Total fat mass entry in assay [4] (AN1284 2HCl 2 μmoles/kg sc twice daily for fifteen weeks, diabetic mice) is reported as “further reduction”. Besides, in assay [4] (chronic treatment), the “Blood urea nitrogen levels” value was “normalizing”, the Glomerular cross-sectional area entry was “normalizing” and the Urine albumin-to-creatinine ratio result is on record as “normalizing”. For the same compound, the “Increased glomerular space area and mesangial expansion” value in assay [4] (versus diabetic-vehicle-treated animals) is on record as “completely normalised”. For the same compound, in assay [4] (versus diabetic-vehicle-treated group), the Kidney-to-body weight ratio entry was “significantly reduced”. Further, in assay [4] (setting [8]), the “mRNA expression level of IP-10” value is listed as “significantly reduced”, the “mRNA expression level of TIMP1” value is on record as “significantly reduced”, the “mRNA expression level of collagen-1” value is given as “significantly reduced” and the “mRNA expression level of collagen-3” value is reported as “significantly reduced”. Further, the “mRNA expression level of kidney injury marker lipocalin 2” value in assay [4] (setting [8]) is given as “significantly reduced”. In assay [5], the “Reduction (%) ± STD compared to LPS alone, IL-6” value turned out to be 64.7 ± 14.8%. Moreover, in assay [6] (setting [9]), the “MDSCs in the bone marrow and spleen (flow cytometry)” value is “significant reduction”; the “T cells in the bone marrow and spleen (flow cytometry)” value was “significant reduction”. In addition, the Body weight decrease result in assay [6] (1 μmole/kg 2HCl salt sc twice daily, versus untreated tamoxifen-challenged mice) is listed as “much smaller decrease”. For the same compound, the “Development of severe lethargy” value in assay [6] (1 μmole/kg of the 2HCl salt sc twice daily, from 5 weeks after tamoxifen, five weeks of treatment) is given as “none of the AN1284-treated mice developed severe lethargy”. Also, the Renal cysts entry in assay [6] (kidney histology) was “clear reduction”. Moreover, the “Cytokine levels of TNF-α and IL-6 in spleen and liver” value in assay [6] (versus untreated group) is listed as “significant reduction”. Moreover, in assay [3], the “IL-6 protein in the brain” value is “reduction” and the “IL-6 protein in the liver” value is listed as “reduction”. In addition, the “Decrease of the concentration that inhibited significantly the release of TNF-α” value in assay [1] (setting [10]) is given as 10 fold. Further, the “Reduction (%) ± STD compared to LPS alone, TNF-α” value (shortened to “Reduction (%) ± STD … TNF-α”) in assay [7] (6 h after LPS, 1 × 10^−9 M) was determined as 55.3 ± 9.8%. The “Reduction (%) ± STD … TNF-α” value in assay [7] (12 h after LPS, 1 × 10^−10 M) was 41.1 ± 5.4%. Also, the “Reduction (%) ± STD … TNF-α” value in assay [7] (12 h after LPS, 1 × 10^−11 M) is listed as 7.1 ± 5.8 %. Moreover, in assay [7] (24 h after LPS, 1 × 10^−9 M), the “Reduction (%) ± STD … TNF-α” value came out at 71.4 ± 9.7%. In addition, the “Decrease of the concentration that inhibited significantly the release of NO” value in assay [2] (setting [10]) was 10 fold.
As to `COC(=O)CCN1CCc2cc(Cl)ccc21.Cc1ccc(S(=O)(=O)O)cc1` [AN1285, Methyl 3-(5-Chloroindolin-1-yl)propanoate p-Toluenesulfonate], the “Greater concentration needed to cause the same effect (TNF-α release)” value in assay [1] stood at 100 fold. Moreover, in assay [2], the “Greater concentration needed to cause the same effect (NO release)” value is reported as 100 fold.
Consider `COc1ccc2c(c1)CCN2CCCNC(C)C` [AN1298, N-Isopropyl-3-(5-methoxyindolin-1-yl)propan-1-amine di-Hydrochloride], for which the “Reduction (%) ± STD compared to LPS alone, IL-6” value in assay [5] is 54.6 ± 18.8%. Moreover, the “IL-6 protein in the brain” value in assay [3] is reported as “reduction”. In addition, the “IL-6 protein in the liver” value in assay [3] is on record as “reduction”. Further, the “Greater concentration needed to cause the same effect (TNF-α release)” value in assay [1] is “does not affect the activity”. Further, the “Reduction (%) ± STD … TNF-α” value in assay [7] (6 h after LPS, 1 × 10^−9 M) is 50.4 ± 13.5%; in assay [7] (12 h after LPS, 1 × 10^−10 M) it was 28.0 ± 7.9%; in assay [7] (12 h after LPS, 1 × 10^−11 M), 14.6 ± 4.2%; in assay [7] (24 h after LPS, 1 × 10^−9 M), 72.2 ± 9.7%. In addition, in assay [2], the “Greater concentration needed to cause the same effect (NO release)” value is on record as “does not affect the activity”.
